Reference: US20060276440A1, “Treatment of inflammatory disorders” (priority 2005, published 2006)

Test system: JAK/STAT pathway (STAT 1, 3, 5)
Experiment: STAT phosphorylation (FACS) and nuclear translocation (immunostaining) in SW1353 cells
Assay type: cell-based, human
Conditions: 20 nM, OSM/IL-1 activation
Experimental: SW1353 cells were seeded and treated as described above. For the flow cytometric analysis of intracellular phopho-proteins, trypsinized SW1353 cells were fixed in 1.5% formaldehyde at room temperature (RT), and permeabilized in ice cold methanol for minimum of 10 minutes. After 2× wash in wash buffer (D-PBS, with 1% FBS), cells were stained with phospho-specific antibodies (5 ug/ml final) for 20 minutes, washed 2× in wash buffer, followed by 20 minutes incubation with phycoerythrin-conjugated anti-mouse IgG (10 ug/ml final). Following 2× wash in wash buffer, cells were analyzed by flow cytometry.
For immunohistochemistry of intracellular phospho-proteins, fixation and permeabilization conditions were identical to the ones used for flow cytometric analysis. For the visualization of the phosphor-specific proteins, ImmPRESS Universal Antibody kit (Vector Laboratories, Burlingame, Calif.) was used.
The cellular and molecular mechanisms by which CA4 repressed pro-MMP-13 production, using SW1353 as the model system were investigated. […] The pathways that mediate OSM and IL-1 signal transduction were then examined. Using inhibitors that target key components of the pathways, it was shown that JAK/STAT, p38, JNK, and NF-κB pathways were important for OSM/IL-1-stimulated pro-MMP-13 production (FIG. 13B-E), but not ERK or Cox1/2 pathways (data not shown). […]

SMILES: COc1ccc(/C=C\c2cc(OC)c(OC)c(OC)c2)cc1O [Combretastatin A4 (1), (Z)-5-(3,4,5-trimethoxystyryl)-2-methoxyphenol]
- STAT 1, 3, 5 phosphorylation (FACS): did not affect
- STAT nuclear translocation (immunostaining): did not affect
